Laboratory results published in patent publication US20180237441A1, “Chemical Compounds” (GlaxoSmithKline Intellectual Property (No.2) Limited, priority 2015, published 2018).
Where two headings read alike, the source gives them in different places.

Target: T1, PERK (Homo sapiens, UniProt Q9NZJ5)
T1 sequence (Q9NZJ5 30-1116): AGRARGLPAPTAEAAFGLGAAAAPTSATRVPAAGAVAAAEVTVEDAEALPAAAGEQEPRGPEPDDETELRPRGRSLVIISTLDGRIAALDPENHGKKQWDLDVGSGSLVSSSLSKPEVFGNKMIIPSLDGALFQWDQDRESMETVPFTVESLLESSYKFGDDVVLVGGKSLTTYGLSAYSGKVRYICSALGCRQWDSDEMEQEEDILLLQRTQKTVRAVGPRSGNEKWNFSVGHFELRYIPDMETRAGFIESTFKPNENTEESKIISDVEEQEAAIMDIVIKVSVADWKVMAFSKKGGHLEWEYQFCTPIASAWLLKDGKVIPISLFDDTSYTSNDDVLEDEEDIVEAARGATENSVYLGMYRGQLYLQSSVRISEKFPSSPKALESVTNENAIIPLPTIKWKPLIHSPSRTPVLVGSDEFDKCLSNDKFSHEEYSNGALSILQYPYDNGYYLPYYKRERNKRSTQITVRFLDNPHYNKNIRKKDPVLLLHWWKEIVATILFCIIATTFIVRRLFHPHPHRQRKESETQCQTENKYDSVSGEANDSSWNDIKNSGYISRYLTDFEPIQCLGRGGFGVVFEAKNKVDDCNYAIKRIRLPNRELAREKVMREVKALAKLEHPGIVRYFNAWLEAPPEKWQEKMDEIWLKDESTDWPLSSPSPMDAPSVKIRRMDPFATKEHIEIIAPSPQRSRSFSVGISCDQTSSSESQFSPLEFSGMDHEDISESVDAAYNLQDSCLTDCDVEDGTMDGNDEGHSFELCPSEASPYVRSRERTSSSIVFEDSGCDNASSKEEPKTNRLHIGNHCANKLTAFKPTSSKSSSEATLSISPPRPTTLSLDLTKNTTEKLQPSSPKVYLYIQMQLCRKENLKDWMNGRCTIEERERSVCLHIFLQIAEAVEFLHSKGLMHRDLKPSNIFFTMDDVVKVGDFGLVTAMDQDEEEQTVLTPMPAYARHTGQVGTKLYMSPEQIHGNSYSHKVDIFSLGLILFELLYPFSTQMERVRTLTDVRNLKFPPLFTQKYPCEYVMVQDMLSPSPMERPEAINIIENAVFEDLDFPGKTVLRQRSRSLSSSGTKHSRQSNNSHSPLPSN
Test: PERK enzyme assay (HTRF)
Format: biochemical
Conditions: at least one experimental run
Procedure: Compounds of the invention were assayed for PERK enzyme inhibitory activity with modifications to previously reported conditions (Axten et al. J. Med. Chem., 2012, 55, 7193-7207). Briefly, various concentrations of compounds (maximum 1% DMSO) were dispensed into 384-well plates containing GST-PERK enzyme. After 30-60 minutes of compound pre-incubation, ATP and biotin-eIF2α were added and after 60 minutes the reaction was quenched. After 2 hrs, a fluorescence plate reader was used to measure inhibition and IC50s were calculated.
Enzyme Assay Protocol for PKR-Like Endoplasmic Reticulum Kinase (PERK)—HTRF —% Inhibition
Assay Buffer contains HEPES (pH7.5) 10 mM, CHAPS 2 mM, MgCl2 5 mM and DTT 1 mM in water
Detection Buffer contains HEPES (pH7.5) 10 mM and CHAPS 2 mM in water Assay Plate Preparation:
1. Enzyme Preparation: • 4× Enzyme solution was prepared immediately prior to adding to compound plates. • 3 nM of GST-PERK in Assay buffer. Final [PERK] in 10 μl assay volume=0.75 nM
2. Substrate Preparation: • 4× Substrate solution was prepared immediately prior to adding to compound plates. • 4× Substrate solution in assay buffer 2000 μM ATP and 160 nM Biotin-eIF2α • Final [ATP] in 10 μl assay volume=500 μM • Final [biotin-eIF2a] in 10 μl assay volume=40 nM.
3. Quench/Detection Solution: • 16 nM eIF2 Phospho-Antibody • 16 nM Eu anti-Rabbit IgG • 160 nM Streptavidin-APC • 60 mM EDTA • Final concentration in 10 μL assay volume: 4 nM eIF2 Phospho-Antibody, 4 nM Eu anti-Rabbit IgG 40 nM Streptavidin-APC
The activity of compounds in the PERK enzyme assay was determined at PERK Enzyme (500 μM ATP) IC50 (nM).

[1] = PERK Enzyme (500 μM ATP) IC50, read-out: PERK Activity
[2] = 500 μM ATP, read-out: PERK Enzyme (500 μM ATP) IC50

| SMILES | IC50 [1] | IC50 [2] |
| --- | --- | --- |
| CN1C(=O)N(c2ccc(-c3cn(C4CC4)c4ncnc(N)c34)c(F)c2)CC1c1cccc(Cl)c1 (centres unmarked) [Example 148, 1-(4-(4-amino-7-cyclopropyl-7H-pyrrolo[2,3-d]pyrimidin-5-yl)-3-fluorophenyl)-4-(3-chlorophenyl)-3-methylimidazolidin-2-one] | < 100 nM | – |
| CN1C(=O)N(c2ccc(-c3cn(C)c4ncnc(N)c34)c(F)c2)CC1c1cc(F)cc(F)c1F (centres unmarked) [Example 56, 1-(4-(4-amino-7-methyl-7H-pyrrolo[2,3-d]pyrimidin-5-yl)-3-fluorophenyl)-3-methyl-4-(2,3,5-trifluorophenyl)imidazolidin-2-one] | 100 to 1000 nM | – |
| CN1C(=O)N(c2ccc(-c3cn(C)c4ncnc(N)c34)c(F)c2)CC1c1cc(F)cc(F)c1F (single isomer, unassigned) [Example 141, 1-(4-(4-amino-7-methyl-7H-pyrrolo[2,3-d]pyrimidin-5-yl)-3-fluorophenyl)-3-methyl-4-(2,3,5-trifluorophenyl)imidazolidin-2-one] | 100 to 1000 nM | – |
| CN1C(=O)N(c2ccc(-c3cn(C4CC4)c4ncnc(N)c34)c(F)c2)CC1c1ccc(F)cc1F (single isomer, unassigned) [Example 137, 1-(4-(4-amino-7-cyclopropyl-7H-pyrrolo[2,3-d]pyrimidin-5-yl)-3-fluorophenyl)-4-(2,4-difluorophenyl)-3-methylimidazolidin-2-one] | < 100 nM | 17.8 nM |
| Cc1nc(N)c2c(-c3ccc(N4CC(c5cc(F)ccc5F)N(C)C4=O)cc3F)cn(C)c2n1 (single isomer, unassigned) [Example 37, 1-(4-(4-amino-2,7-dimethyl-7H-pyrrolo[2,3-d]pyrimidin-5-yl)-3-fluorophenyl)-4-(2,5-difluorophenyl)-3-methylimidazolidin-2-one] | 100 to 1000 nM | – |
| CN1C(=O)N(c2ccc(-c3cn(C)c4ncnc(N)c34)c(F)c2)CC1c1ccc(F)cc1F (single isomer, unassigned) [Example 46, 1-(4-(4-amino-7-methyl-7H-pyrrolo[2,3-d]pyrimidin-5-yl)-3-fluorophenyl)-4-(2,4-difluorophenyl)-3-methylimidazolidin-2-one] | < 100 nM | 13.8 nM |
| CCN1C(=O)N(c2ccc(-c3cn(C)c4nc(C)nc(N)c34)c(F)c2)CC1c1cc(F)ccc1F (centres unmarked) [Example 19, 1-(4-(4-amino-2,7-dimethyl-7H-pyrrolo[2,3-d]pyrimidin-5-yl)-3-fluorophenyl)-4-(2,5-difluorophenyl)-3-ethylimidazolidin-2-one] | > 1000 nM | – |
| CCN1C(=O)N(c2ccc(-c3cn(C)c4ncnc(N)c34)c(F)c2)CC1c1cc(F)cc(F)c1 (single isomer, unassigned) [Example 171, 1-(4-(4-amino-7-methyl-7H-pyrrolo[2,3-d]pyrimidin-5-yl)-3-fluorophenyl)-4-(3,5-difluorophenyl)-3-ethylimidazolidin-2-one] | < 100 nM | – |
| CCN1C(=O)N(c2ccc(-c3cn(C)c4ncnc(N)c34)c(F)c2)CC1c1cc(F)cc(F)c1 (single isomer, unassigned) [Example 172, 1-(4-(4-amino-7-methyl-7H-pyrrolo[2,3-d]pyrimidin-5-yl)-3-fluorophenyl)-4-(3,5-difluorophenyl)-3-ethylimidazolidin-2-one] | < 100 nM | 30.1 nM |
| CCN1C(=O)N(c2ccc(-c3cn(C4CC4)c4ncnc(N)c34)c(F)c2)CC1c1cc(F)cc(F)c1 (centres unmarked) [Example 170, 1-(4-(4-amino-7-cyclopropyl-7H-pyrrolo[2,3-d]pyrimidin-5-yl)-3-fluorophenyl)-4-(3,5-difluorophenyl)-3-ethylimidazolidin-2-one] | < 100 nM | – |
| CN1C(=O)N(c2ccc(-c3cn(C4CC4)c4ncnc(N)c34)c(F)c2)CC1c1cc(F)cc(F)c1 (centres unmarked) [Example 176, 1-(4-(4-amino-7-cyclopropyl-7H-pvrrolo[2,3-d]pyrimidin-5-yl)-3-fluorophenyl)-4-(3,5-difluorophenyl)-3-methylimidazolidin-2-one] | < 100 nM | – |
